Data set [1] concerns the target T1, NR1/NR2A (Rattus norvegicus, UniProt P35439+Q00959). The conditions noted are these: FIG. 4.
Description: Stage V and VI oocytes were surgically removed from the ovaries of large, well-fed and healthy Xenopus laevis anesthetized with 3-amino-benzoic acid ethyl ester (1 gm/l). Clusters of oocytes were incubated with 292 U/ml Worthington (Freehold, N.J.) type IV collagenase or 1.3 mg/ml collagenase (Life Technologies, Gaithersburg, Md.; 17018-029) for 2 hr in Ca2+-free solution comprised of (in mM) 115 NaCl, 2.5 KCl, and 10 HEPES, pH 7.5, with slow agitation to remove the follicular cell layer. Oocytes were then washed extensively in the same solution supplemented with 1.8 mM CaCl2 and maintained in Barth's solution comprised of (in mM): 88 NaCl, 1 KCl, 24 NaHCO3, 10 HEPES, 0.82 MgSO4, 0.33 Ca(NO3)2, and 0.91 CaCl2 and supplemented with 100 ug/ml gentamycin, 40 ug/ml streptomycin, and 50 ug/ml penicillin. Oocytes were manually defolliculated and injected within 24 hr of isolation with 5 ng of NR1 subunit and 10 ng of NR2 subunit in a 50 nl volume, and incubated in Barth's solution at 18° C. for 3-7 d. Glass injection pipettes had tip sizes ranging from 10-20 microns, and were backfilled with mineral oil.
These stock solutions were subsequently diluted to the appropriate concentration range in a working solution comprised of 90 mM NaCl, 3 mM KCl, 5 mM HEPES, 0.5 mM BaCl2, 10 uM EDTA, 100 uM glutamate, 50 uM glycine (pH either 6.9 or 7.6 adjusted with NAOH or HCl as appropriate). […]
Data set [2] can be described thus: Locomotor activity of rats (light beam breaks). The conditions noted are these: for effects on locomotor activity: monitored 2 hours after injection; for effects on locomotor activity (positive control): varying doses IP. As to the method: The Locomotor Activity Index is the total number of beam breaks during the trial divided by 1000.
Locomotor activity was monitored after injection for 2 hours.

Data set [3] is described as follows: Side effects observed in the SNL study. It is filed as in vivo, Sprague-Dawley rats. As to the method: (§1) Experimental design: von Frey baseline measurements were made 30 minutes and 24 hours prior to drug administration respectively. Additional von Frey measurements were made at 30, 60, 120 and 240 min. The timeline for testing is summarized below. The experimental groups were: ·vehicle (1% DMSO+66% PEG 400 in distilled water, i.p., 4 ml/kg, n=10)·30 mg/kg Compound 93-31 test (i.p., 4 ml/kg, n=10)·100 mg/kg Compound 93-31 test (i.p., 4 ml/kg, n=10)·30 mg/kg Compound 93-97 test (i.p., 4 ml/kg, n=10)·100 mg/kg Compound 93-97 test (i.p., 4 ml/kg, n=10)·100 mg/kg Gabapentin (i.p., 4 ml/kg, n=12) (Total rats: 62). [drawing 42]
The side effects observed were writhing and stretching (8 observations). These side effects were most commonly seen for the first few minutes (˜5 minutes) following i.p. drug administration. […] Some side effects were observed while measuring the endpoints. The most common was stretching/writhing which may be a sign of some visceral pain or hypersensitivity. […] It seems likely to be associated with i.p. administration of the vehicle in a subset of animals. This seemed relatively rare, short lived (<5 min), and the magnitude was not large enough to interfere with measurement of the endpoint.

The nature of data set [4]: Spinal Nerve Ligation (SNL) model, mechanical allodynia (von Frey). It is filed as in vivo, Sprague-Dawley rats. The conditions noted are these: for Injured paw - von Frey threshold: mean ± SEM. The method, then: Animals: Male Sprague-Dawley rats (Hsd:Sprague-Dawley®™SD®™, Harlan, Indianapolis, Ind., U.S.A.) weighing 100±10 g on surgery day and 250±10 g on testing day were housed three per cage. Animals had free access to food and water and were maintained on a 12:12 h light/dark schedule. The animal colony was maintained at 21° C. and 60% humidity. All experiments were conducted in accordance with the International Association for the Study of Pain guidelines and were approved by the University of Minnesota Animal Care and Use Committee.
Drugs and dosing solutions: The drugs were dissolved in 1% v/v DMSO and 66% v/v PEG 400 in distilled water. Compounds were administered by i.p. route.
Induction of chronic neuropathic pain: The Spinal Nerve Ligation (SNL) model (Kim and Chung 1992 Pain 50:355-63.) was used to induce chronic neuropathic pain. The animals were anesthetized with isoflurane, the left […] transverse process was removed, and the L5 and L6 spinal nerves were tightly ligated with 6-0 silk suture. The wound was then closed with internal sutures and external staples. Wound clips were removed 10 days following surgery.
Mechanical allodynia testing: Baseline and post-treatment values for non-noxious mechanical sensitivity were evaluated using 8 Semmes-Weinstein filaments (Stoelting, Wood Dale, Ill., USA) with varying stiffness (0.4, 0.7, 1.2, 2.0, 3.6, 5.5, 8.5, and 15 g) according to the up-down method (Chaplan, Bach et al. 1994 J Neurosci Methods 53: 55-63). Animals were placed on a perforated metallic platform and allowed to acclimate to their surroundings for a minimum of 30 minutes before testing. The mean and standard error of the mean (SEM) were determined for each animal in each treatment group. Since this stimulus is normally not considered painful, significant injury-induced increases in responsiveness in this test are interpreted as a measure of mechanical allodynia.
as §1
Data analysis: Statistical analyses were conducted using Prism™ 4.01 (GraphPad, San Diego, Calif., USA). Mechanical allodynia of the injured paw was determined by comparing values observed in the contralateral and ipsilateral paws within the vehicle group. Stability of vehicle group injured paw values over time was tested using the Friedman two-way analysis of variance by rank. Drug effect was analyzed at each time point by carrying out a Kruskal-Wallis one-way analysis of variance by rank followed by a Dunn's post hoc test.
Testing for mechanical allodynia (von Frey) was initiated 14 days after SNL surgery. Tests were performed on both injured (ipsilateral) and normal (contralateral) paws at baseline (30 minutes before drug administration) and 30, 60, 120 and 240 minutes after a single drug administration.

The conditions of data set [5]: rats; Dogan et al.; cited from earlier work.
The subject of data set [6] is primary cultures of rat cerebral cortex. The settings on record: pH 6.5 vs pH 7.5; Mott et al. 1998; cited from earlier work.
The conditions of data set [7]: cats; highest dose tested; Gotti et al.; cited from earlier work.
The conditions of data set [8]: cats and rats; highest dose tested; Gotti et al.; cited from earlier work.
The target of the next data set is T2, NR1/NR2D (Rattus norvegicus, UniProt P35439+Q62645).
T2 construct: expressed in transfected cells
T2 sequence (Q62645 28-1323, other chains not shown): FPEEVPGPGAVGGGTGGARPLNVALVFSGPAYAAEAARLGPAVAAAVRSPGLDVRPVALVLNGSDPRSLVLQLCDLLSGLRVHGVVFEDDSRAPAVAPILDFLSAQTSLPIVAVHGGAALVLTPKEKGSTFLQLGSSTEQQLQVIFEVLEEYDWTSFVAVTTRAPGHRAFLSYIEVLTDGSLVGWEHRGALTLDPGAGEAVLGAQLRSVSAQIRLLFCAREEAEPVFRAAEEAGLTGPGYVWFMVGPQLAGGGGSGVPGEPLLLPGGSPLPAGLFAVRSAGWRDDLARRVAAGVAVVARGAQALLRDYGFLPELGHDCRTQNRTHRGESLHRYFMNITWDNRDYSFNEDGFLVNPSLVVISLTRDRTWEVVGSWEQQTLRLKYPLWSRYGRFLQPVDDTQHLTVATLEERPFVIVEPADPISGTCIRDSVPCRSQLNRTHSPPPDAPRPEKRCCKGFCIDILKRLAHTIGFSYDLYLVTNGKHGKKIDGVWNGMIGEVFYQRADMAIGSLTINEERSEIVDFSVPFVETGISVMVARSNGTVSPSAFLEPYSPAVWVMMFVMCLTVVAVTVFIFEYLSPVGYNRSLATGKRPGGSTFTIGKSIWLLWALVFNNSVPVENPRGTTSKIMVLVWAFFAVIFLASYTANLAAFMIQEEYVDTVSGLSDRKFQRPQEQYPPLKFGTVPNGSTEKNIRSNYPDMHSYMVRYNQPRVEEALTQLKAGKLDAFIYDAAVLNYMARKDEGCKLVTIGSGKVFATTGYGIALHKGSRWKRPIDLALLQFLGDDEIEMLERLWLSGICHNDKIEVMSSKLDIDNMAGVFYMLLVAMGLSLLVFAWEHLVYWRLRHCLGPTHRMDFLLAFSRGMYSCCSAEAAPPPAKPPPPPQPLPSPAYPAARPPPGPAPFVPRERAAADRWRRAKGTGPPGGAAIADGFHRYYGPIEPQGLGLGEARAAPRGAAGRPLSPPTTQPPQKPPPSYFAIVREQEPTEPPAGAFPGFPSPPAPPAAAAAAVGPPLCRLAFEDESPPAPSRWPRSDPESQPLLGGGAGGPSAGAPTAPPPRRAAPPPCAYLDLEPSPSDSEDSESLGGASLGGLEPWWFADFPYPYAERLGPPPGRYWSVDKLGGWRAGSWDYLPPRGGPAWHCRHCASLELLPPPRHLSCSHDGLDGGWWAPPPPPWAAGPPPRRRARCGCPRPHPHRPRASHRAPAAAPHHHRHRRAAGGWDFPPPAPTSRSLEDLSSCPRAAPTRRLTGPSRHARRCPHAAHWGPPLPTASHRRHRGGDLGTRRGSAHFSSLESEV
Description: NMDA receptor mediated currents, NR1/NR2D. The data set is classed as cell-based. The settings on record: 3 uM.

The next data set deals with AMPA receptors. Description: Two electrode voltage clamp, Xenopus oocytes injected with AMPA receptor subunits. The data set is classed as cell-based. The conditions noted are these: 3 uM coadministered with glutamate. As to the method:
(§2) Glutamate or domoate induced current recordings were performed using two electrode voltage clamp, and 3 uM of Compound 93-4 coadministered with agonist (glutamate for AMPA receptors, domoate for kainate receptors).
Background: Two-electrode voltage clamp holds a large cell at a set potential and records current.

In the next data set the target is T3, NR1/NR2B (Rattus norvegicus, UniProt P35439+Q00960).
T3 construct: expressed in transfected cells
T3 sequence (Q00960 27-1482, other chains not shown): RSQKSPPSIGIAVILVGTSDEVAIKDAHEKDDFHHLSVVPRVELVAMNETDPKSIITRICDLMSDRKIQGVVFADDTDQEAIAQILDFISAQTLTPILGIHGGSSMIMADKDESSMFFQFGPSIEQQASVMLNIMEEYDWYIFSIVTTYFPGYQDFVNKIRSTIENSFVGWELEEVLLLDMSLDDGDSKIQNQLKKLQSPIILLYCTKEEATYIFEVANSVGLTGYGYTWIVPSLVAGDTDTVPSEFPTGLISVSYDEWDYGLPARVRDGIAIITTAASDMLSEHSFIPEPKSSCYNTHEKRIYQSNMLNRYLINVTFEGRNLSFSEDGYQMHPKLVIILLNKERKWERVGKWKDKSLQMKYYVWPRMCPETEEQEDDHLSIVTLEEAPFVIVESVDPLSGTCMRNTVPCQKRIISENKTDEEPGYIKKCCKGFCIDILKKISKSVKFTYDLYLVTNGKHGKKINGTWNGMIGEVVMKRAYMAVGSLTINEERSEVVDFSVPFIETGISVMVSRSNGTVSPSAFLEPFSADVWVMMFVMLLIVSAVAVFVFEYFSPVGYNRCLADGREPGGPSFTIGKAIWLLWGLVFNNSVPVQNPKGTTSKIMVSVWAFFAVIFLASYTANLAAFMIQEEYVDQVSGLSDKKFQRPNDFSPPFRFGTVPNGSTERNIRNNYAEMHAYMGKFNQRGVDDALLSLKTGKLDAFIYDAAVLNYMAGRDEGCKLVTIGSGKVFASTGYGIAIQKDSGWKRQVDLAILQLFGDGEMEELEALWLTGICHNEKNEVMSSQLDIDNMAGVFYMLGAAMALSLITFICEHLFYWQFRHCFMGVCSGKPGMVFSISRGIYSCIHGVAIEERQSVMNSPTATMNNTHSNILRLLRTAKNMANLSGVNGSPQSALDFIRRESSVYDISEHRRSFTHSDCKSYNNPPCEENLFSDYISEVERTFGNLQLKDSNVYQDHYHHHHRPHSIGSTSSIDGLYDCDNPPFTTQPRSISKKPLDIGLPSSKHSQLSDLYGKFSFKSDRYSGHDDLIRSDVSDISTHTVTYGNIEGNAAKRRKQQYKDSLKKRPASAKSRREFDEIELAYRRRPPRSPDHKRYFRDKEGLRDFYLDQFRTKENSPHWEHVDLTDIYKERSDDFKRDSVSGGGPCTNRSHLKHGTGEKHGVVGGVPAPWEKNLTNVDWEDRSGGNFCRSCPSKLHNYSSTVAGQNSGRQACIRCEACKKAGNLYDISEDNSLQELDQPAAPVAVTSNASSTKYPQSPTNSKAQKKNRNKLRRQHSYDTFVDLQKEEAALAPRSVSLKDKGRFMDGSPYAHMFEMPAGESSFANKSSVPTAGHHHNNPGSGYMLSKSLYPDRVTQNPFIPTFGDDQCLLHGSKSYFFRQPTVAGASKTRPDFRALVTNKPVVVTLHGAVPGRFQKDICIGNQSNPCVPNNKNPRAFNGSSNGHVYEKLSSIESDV
The data set can be described thus: NMDA receptor mediated currents, NR1/NR2B. It is filed as cell-based. The settings on record: 3 uM; NR1/NR2B subunits.

For data set [9], the target named is T1, NR1/NR2A. Description: NMDA receptor mediated currents, NR1/NR2A. The conditions noted are these: 3 uM. The data set is classed as cell-based. More on the design: expressed in transfected cells.
The subject of a further data set is kainate receptors. The data set can be described thus: Two electrode voltage clamp, Xenopus oocytes injected with kainate receptor subunits. The data set is classed as cell-based. The settings on record: 3 uM coadministered with domoate. The method, then: as §2

Entries after “also recorded” stand apart in the source; their conditions may differ. Where two headings read alike, the source gives them in different places.

For orientation: ED50 means the dose at which the effect has come halfway, by size or by number of responders.

T1 sequence (Q00959 23-1464, other chains not shown): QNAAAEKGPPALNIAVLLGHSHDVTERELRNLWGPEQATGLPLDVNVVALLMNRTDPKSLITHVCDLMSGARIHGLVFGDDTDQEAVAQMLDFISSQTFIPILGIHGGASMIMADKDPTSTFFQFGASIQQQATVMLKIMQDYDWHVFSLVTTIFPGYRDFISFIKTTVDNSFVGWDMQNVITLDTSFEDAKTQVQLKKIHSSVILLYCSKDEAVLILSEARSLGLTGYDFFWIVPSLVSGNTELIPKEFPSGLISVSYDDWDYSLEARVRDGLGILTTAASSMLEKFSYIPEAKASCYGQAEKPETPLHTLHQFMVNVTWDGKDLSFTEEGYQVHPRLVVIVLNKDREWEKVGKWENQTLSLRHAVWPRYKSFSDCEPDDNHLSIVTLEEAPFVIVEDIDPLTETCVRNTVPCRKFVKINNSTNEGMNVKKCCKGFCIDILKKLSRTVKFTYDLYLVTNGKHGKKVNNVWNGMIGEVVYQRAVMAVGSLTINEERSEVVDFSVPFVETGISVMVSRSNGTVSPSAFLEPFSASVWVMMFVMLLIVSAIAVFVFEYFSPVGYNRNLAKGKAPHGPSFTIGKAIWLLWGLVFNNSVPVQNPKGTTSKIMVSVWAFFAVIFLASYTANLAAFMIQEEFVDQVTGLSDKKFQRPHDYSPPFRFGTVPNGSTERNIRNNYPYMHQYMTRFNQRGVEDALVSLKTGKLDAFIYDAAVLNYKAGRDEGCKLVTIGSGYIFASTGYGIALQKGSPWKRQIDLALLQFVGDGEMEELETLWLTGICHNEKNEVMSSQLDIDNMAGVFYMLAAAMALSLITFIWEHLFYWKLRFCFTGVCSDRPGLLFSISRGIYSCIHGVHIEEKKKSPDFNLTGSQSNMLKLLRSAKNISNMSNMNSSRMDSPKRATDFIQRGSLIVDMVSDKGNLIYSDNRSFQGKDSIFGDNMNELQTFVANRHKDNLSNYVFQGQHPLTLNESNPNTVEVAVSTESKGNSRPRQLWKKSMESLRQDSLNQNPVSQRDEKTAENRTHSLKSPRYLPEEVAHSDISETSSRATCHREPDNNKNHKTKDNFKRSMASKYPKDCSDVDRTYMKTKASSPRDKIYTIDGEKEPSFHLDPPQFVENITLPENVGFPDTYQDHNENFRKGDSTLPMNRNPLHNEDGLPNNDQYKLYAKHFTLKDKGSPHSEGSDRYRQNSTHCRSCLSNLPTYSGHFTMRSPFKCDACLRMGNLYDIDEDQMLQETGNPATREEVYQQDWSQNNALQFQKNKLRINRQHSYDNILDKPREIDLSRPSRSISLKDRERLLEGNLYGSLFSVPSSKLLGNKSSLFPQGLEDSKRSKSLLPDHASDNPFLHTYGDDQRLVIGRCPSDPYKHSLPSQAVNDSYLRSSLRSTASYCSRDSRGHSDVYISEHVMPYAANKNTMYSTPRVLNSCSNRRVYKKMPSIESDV

For `CNC1(c2ccccc2Cl)CCCCC1=O` (stereo not shown) [ketamine], at NR1/NR2A [1], the “mean within the shaded area (criteria for improved drug performance) for NR1/NR2A” value was “fall within the shaded area”.
For the compound `CCN(CCc1ccc(Cl)c(Cl)c1)C[C@H](O)COc1ccc(NS(C)(=O)=O)cc1` [Compound 93-5], the “effects on locomotor activity” value in data set [2] (3-300 mg/kg IP) is “no significant effects”.
Take `CCCCN(CCc1ccc(Cl)c(Cl)c1)C[C@H](O)COc1ccc(NS(C)(=O)=O)cc1` [Compound 93-31]: in data set [3] (30 mg/kg i.p.), the “Side Effects: stretching/writhing (animals affected/group)” value (“Side Effects: stretching/writhing” below) was 0/10 stretching/writhing. For the same compound, the “analgesic effect, injured paw” value in data set [4] (30 mg/kg i.p., any time point studied) was “no analgesic effect”. Moreover, the “Injured paw - von Frey threshold” value in [4] (30 mg/kg i.p., 30 min) came out at 1.9 ± 0.3; in data set [4] (30 mg/kg i.p., 60 min), 1.7 ± 0.1; in data set [4] (30 mg/kg i.p., 120 min), 0.8 ± 0.2; in data set [4] (30 mg/kg i.p., 240 min), 1.1 ± 0.3; in data set [4] (30 mg/kg i.p., Baseline) it was 2.4 ± 0.4; in data set [4] (100 mg/kg i.p., 30 min), 9.3 ± 1.5. Further, the “Injured paw - von Frey threshold” value in data set [4] (100 mg/kg i.p., 60 min) worked out at 8.9 ± 1.7; in [4] (100 mg/kg i.p., 120 min), 1.9 ± 0.3; in [4] (100 mg/kg i.p., 240 min), 0.8 ± 0.2; in [4] (100 mg/kg i.p., Baseline), 1.7 ± 0.3. The “analgesia / attenuation of mechanical allodynia, injured paw” value in [4] (100 mg/kg i.p.) is “observable analgesia at 30 and 60 min; also recorded: appeared to attenuate mechanical allodynia; also recorded: attenuated mechanical allodynia”. For the same compound, the duration of action in [4] (100 mg/kg i.p.) is recorded as 60 min. For the same compound, the onset in data set [4] (100 mg/kg i.p.) amounted to 30 min. Also, the “peak threshold relative to the normal paw” value in data set [4] (100 mg/kg i.p.) was “approximately half of that seen in the normal paw”. In addition, the “effect on von Frey thresholds measured in the normal paw” value in [4] (30 and 100 mg/kg i.p.) is listed as “no effect on the normal paw”. In [4] (Rattus norvegicus, ip, assuming complete reversal may be achieved with higher doses), the ED50 was about 100 mg/kg. The “effects on locomotor activity” value in [2] (3-300 mg/kg IP) is “no significant effects”. Moreover, the “effect on locomotor activity index” value in [2] (IP, doses up to 300 mg/kg, FIG. 5) is “no significant effect”.
Regarding `CS(=O)(=O)Nc1ccc(OC[C@@H](O)CN(CCO)CCc2ccc(Cl)c(Cl)c2)cc1` [Compound 93-8], the “effects on locomotor activity” value in data set [2] (30-300 mg/kg IP) is on record as “no significant effects”.
As to (+)MK801 [reference compound], the “effects on locomotor activity (positive control)” value was “stereotypical biphasic effects on locomotor activity” in [2]; “induced locomotor activity at low doses and ataxia at higher doses” in data set [2] (listed as (+)MK-801).
Take `NCC1(CC(=O)O)CCCCC1` [Gabapentin, reference compound]: the “Side Effects: stretching/writhing” value in data set [3] (100 mg/kg i.p., for first 5 min) is 1/10 stretching/writhing (for first 5 min). For the same compound, the “Injured paw - von Frey threshold” value in data set [4] (100 mg/kg i.p., 30 min) is on record as 6.0 ± 1.1; in data set [4] (100 mg/kg i.p., 60 min), 11.1 ± 1.5; in data set [4] (100 mg/kg i.p., 120 min), 13.6 ± 0.9; in data set [4] (100 mg/kg i.p., 240 min), 6.6 ± 1.3; in [4] (100 mg/kg i.p., Baseline), 1.9 ± 0.2.
Consider `CC(C(O)c1ccc(O)cc1)N1CCC(Cc2ccccc2)CC1` (stereo not shown) [Ifenprodil], for which the “decrease in infarct volume” value in [5] is 22%. Besides, in data set [6], the “pH dependence of potency” value is “more potent at lower pH (6.5) than higher pH (7.5)”. Further, the decrease infarct volume in [7] was 42%.
Turning to `OC(CN1CCC(Cc2ccc(F)cc2)CC1)c1ccc(Cl)cc1` (stereo not shown) [SL 82.0715], the “decrease in infarct volume” value in [8] is given as 36-48%.
For the compound `CS(=O)(=O)Nc1ccc(OC[C@H](O)CN(CCc2ccc(Cl)c(Cl)c2)Cc2ccccc2O)cc1` [Compound 93-40], in data set [2] (30 mg/kg IP), the “effects on locomotor activity” value is recorded as “no significant effects”.
In the case of `CS(=O)(=O)Nc1ccc(OCC(O)CN(CCc2ccc(Cl)c(Cl)c2)Cc2cccc(O)c2)cc1` (stereo not shown) [Compound 93-41], the “effects on locomotor activity” value in data set [2] (30-300 mg/kg IP) is on record as “no significant effects”.
Regarding `CC(C)CN(CCc1ccc(Cl)c(Cl)c1)C[C@H](O)COc1ccc(NS(C)(=O)=O)cc1` [Compound 93-97], the “Side Effects: stretching/writhing” value in data set [3] (30 mg/kg i.p.) is on record as 2/10 stretching/writhing (for first 5 min). The “Injured paw - von Frey threshold” value in data set [4] (30 mg/kg i.p., 30 min) is 1.6 ± 0.3; in data set [4] (30 mg/kg i.p., 60 min) it was 1.1 ± 0.1; in data set [4] (30 mg/kg i.p., 120 min) it was 0.9 ± 0.1; in data set [4] (30 mg/kg i.p., 240 min), 1.0 ± 0.2; in [4] (30 mg/kg i.p., Baseline), 1.9 ± 0.2; in data set [4] (100 mg/kg i.p., 30 min), 1.1 ± 0.2. The “Injured paw - von Frey threshold” value in [4] (100 mg/kg i.p., 60 min) came to 1.4 ± 0.3; in data set [4] (100 mg/kg i.p., 120 min) it was 1.0 ± 0.1; in [4] (100 mg/kg i.p., 240 min) it was 0.8 ± 0.2; in [4] (100 mg/kg i.p., Baseline), 1.2 ± 0.1. The “effect on von Frey thresholds measured in the normal paw” value in [4] (30 and 100 mg/kg i.p.) is reported as “no effect on normal paw”. The “analgesic effect / attenuation of mechanical allodynia, injured paw” value in [4] (30 and 100 mg/kg i.p., any time point studied) is given as “no analgesic effect; also recorded: failed to attenuate mechanical allodynia”.
Turning to `C[C@@]12N[C@@H](Cc3ccccc31)c1ccccc12` [(−)MK801, reference compound], at NR1/NR2A [1], the “mean within the shaded area (criteria for improved drug performance) for NR1/NR2A” value is “fall within the shaded area”. Also, in data set [2] (compared to vehicle injected control animals), the “fold less potent than (+)MK801 in causing the induction of locomotor activity” value is reported as “at least 10 fold”.
Turning to `CS(=O)(=O)Nc1ccc(OC[C@@H](O)CNCCc2ccc(Cl)c(Cl)c2)cc1` [Compound 93-4], the “inhibiting NMDA receptor mediated currents” value on NR1/NR2D was “not NR1/NR2A or NR1/NR2D”; against NR1/NR2B, “effective at inhibiting”; against NR1/NR2A [9], “not NR1/NR2A”. Also, the “reduction in the agonist induced response” value in the data set on AMPA receptors and in the data set with kainate receptors was “No reduction” each time. Moreover, in data set [2] (3-300 mg/kg IP), the “effects on locomotor activity” value is “no significant effects”.

The values are drawn from patent US20060199864A1, “Selection of pH-dependent compounds for in vivo therapy” (priority 2004, published 2006).
